Data taken from ChEMBL document CHEMBL4699409, “Synthesis, evaluation and molecular modelling of piceatannol analogues as arginase inhibitors” (RSC Med Chem, 2020).

Legend:
[1] = target: T1, Arginase-1 (Homo sapiens, UniProt P05089); assay: Inhibition of recombinant human ARG1 expressed in CHO-K1 cells assessed as reduction in urea level incubated for 24 hrs by colorimetric assay; assay type: cell-based
T1 sequence (P05089 whole entry): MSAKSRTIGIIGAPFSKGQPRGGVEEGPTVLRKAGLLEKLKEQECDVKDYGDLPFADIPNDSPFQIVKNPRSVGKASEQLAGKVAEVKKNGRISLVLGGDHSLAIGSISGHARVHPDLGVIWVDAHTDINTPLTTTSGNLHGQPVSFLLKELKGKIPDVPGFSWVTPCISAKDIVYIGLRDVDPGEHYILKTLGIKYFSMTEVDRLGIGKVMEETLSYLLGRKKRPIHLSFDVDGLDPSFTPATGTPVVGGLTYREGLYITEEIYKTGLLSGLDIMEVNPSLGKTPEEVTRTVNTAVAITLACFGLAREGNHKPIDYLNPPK

[2] = target: T2, Arginase-1 (Bos taurus, UniProt Q2KJ64); assay: Inhibition of recombinant bovine liver ARGI using L-arginine as substrate incubated for 60 mins by spectroscopic analysis
T2 sequence (Q2KJ64 whole entry): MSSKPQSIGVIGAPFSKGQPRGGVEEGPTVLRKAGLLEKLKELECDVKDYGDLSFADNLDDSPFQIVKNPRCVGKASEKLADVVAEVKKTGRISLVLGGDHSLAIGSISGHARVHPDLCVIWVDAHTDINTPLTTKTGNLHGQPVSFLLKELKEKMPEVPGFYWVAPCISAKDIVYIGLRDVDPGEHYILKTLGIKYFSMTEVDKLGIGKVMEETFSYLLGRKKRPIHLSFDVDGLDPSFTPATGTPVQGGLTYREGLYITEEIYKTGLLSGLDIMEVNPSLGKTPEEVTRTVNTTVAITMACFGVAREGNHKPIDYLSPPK

[3] = target: T2, Arginase-1; assay: Mixed type inhibition of recombinant bovine liver ARGI using L-arginine as substrate incubated for 60 mins by Dixon plot analysis
[4] = target: T1, Arginase-1; assay: Inhibition of recombinant human liver ARGI using L-arginine as substrate incubated for 60 mins by spectroscopic analysis
[5] = target: T2, Arginase-1; assay: Mixed type inhibition of recombinant bovine liver ARGI using L-arginine as substrate incubated for 60 mins by Lineweaver-Burk plot analysis
[6] = target: T2, Arginase-1; assay: Mixed type inhibition of recombinant bovine liver ARGI using L-arginine as substrate incubated for 60 mins by Cornish-Bowden plot analysis

SMILES | IC50 [2] [µM] | also measured
N[C@@H](CCCCB(O)O)C(=O)O | – | IC50 [1]: 16.8 µM
NCc1ccc(O)c(O)c1 | 164 | –
Oc1ccc(O)c(O)c1 | 360 | –
Oc1ccc(CNCc2ccc3c(c2)OCO3)cc1O | 226 | –
Oc1ccc(NCc2ccc(O)c(O)c2)cc1 | 238 | –
COc1cccc(CNCc2ccc(O)c(O)c2)c1 | 300 | –
Nc1ccc(O)c(O)c1 | 478 | –
Oc1ccc(CNc2ccc(O)c(O)c2)cc1O | 76 | Ki [3]: 82 µM; IC50 [4]: 89 µM; IC50 [1]: 794 µM; Ki [5]: 82 µM; Ki [6]: 82 µM
Oc1ccc(CNCCN2CCOCC2)cc1O | 467 | –
COc1ccc(CNCc2ccc(O)c(O)c2)cc1 | 389 | –
Oc1cccc(Br)c1O | 274 | –
Oc1ccc(CNCCc2ccccc2)cc1O | 367 | –
O=C(O)/C=C/c1ccc(O)c(O)c1 [CAFFEIC ACID] | 131 | –
Oc1ccccc1O [CATECHOL] | 123 | –
Oc1cc(O)cc(/C=C/c2ccc(O)c(O)c2)c1 [PICEATANNOL] | 47 | Ki [3]: 136 µM; IC50 [4]: 69 µM; IC50 [1]: 1180 µM; Ki [5]: 136 µM; Ki [6]: 136 µM

Second part, led by results:

IC50 [2] [µM] | SMILES | also measured
106 | OCc1ccc(O)c(O)c1 | –
83 | Oc1cccc(NCc2ccc(O)c(O)c2)c1 | –
108 | O=C(O)c1cc(O)cc(NCc2ccc(O)c(O)c2)c1 | –
277 | Oc1ccc(CNCc2cc(Cl)cc(Cl)c2)cc1O | –
187 | O=C(O)c1cc(NCc2ccc(O)c(O)c2)ccc1O | –
154 | COc1ccc(NCc2ccc(O)c(O)c2)cc1 | –
185 | COc1cccc(NCc2ccc(O)c(O)c2)c1 | –
329 | Oc1ccc(CNCc2cccc(Cl)c2)cc1O | –
362 | CCOC(=O)C(NCc1ccc(O)c(O)c1)C(=O)OCC | –
164 | Oc1ccc(CNc2ccccc2)cc1O | –
343 | NCCCNCc1ccc(O)c(O)c1 | –
145 | Oc1ccc(CNCc2ccccc2)cc1O | –
318 | Oc1ccc(CNCCc2c[nH]cn2)cc1O | –
141 | Oc1cc(O)cc(NCc2ccc(O)c(O)c2)c1 | –
128 | NCCc1ccc(O)c(O)c1 [DOPAMINE] | –
285 | COC(=O)c1ccc(O)c(O)c1 [METHYL PROTOCATECHUATE] | –
2.7 | N=C(NO)NCC[C@H](N)C(=O)O [NOR-NOHA] | –
